Reference: patent publication US5182289A, “Heterobicyclic compounds having antiinflammatory activity” (Schering Corporation, priority 1990, dated 1993)
Like-named read-outs stand apart in the source and are kept apart here.

Experiments:
Type in all cases: in vivo, male rats
CO (cyclooxygenase) = assay: Reversed Passive Arthus Reaction (RPAR) in the pleural cavity: TXB-2 in exudate
Method: (§1) Reversed Passive Arthus Reaction (RPAR) Assay
(§2) Groups of 4 male rats were injected in the penile vein with antigen (1 mg BSA in 0.2 mL of saline per rat) and 0.5 hour later injected in the pleural cavity with antibody (1.0 mg antibody protein in the IgG fraction of rabbit anti-BSA in 0.2 mL). […] After 4 hours the animals were killed with CO2, and the pleural cavities were opened and the exudate drained into a graduated conical glass centrifuge tube containing indomethacin (1.8 ug) and nordihydroguaiaretic acid (NDGA) (15 ug) to block ex vivo metabolite synthesis. The volume of the exudate was measured. The cavity was then washed out with saline-EDTA to achieve a final volume of 5.0 mL. The number of cells were determined in a Colulter Counter. The cells were spun-down (1000×g) and the exudate supernatant was added to 4 volumes of 95% ethanol and samples were kept on ice for 30 minutes. After removal of the protein precipitate (2,500×g) the ethanol extract of the exudate was dried under N2 and then stored at -20° C. For radioimmunoassay (RIA) analysis the samples were redissolved in water to a volume of 1 mL per rat. Utilizing internally spiked samples, recovery of TXB2 (tritiated thromboxane B2) and LTE4 (tritiated leukotriene-E4) from exudates was determined to be 84±2% (SEM) and 89±2% (N=4), respectively. Exudate samples were directly assayed in duplicate with the commercial ^3 H-TXB2 RIA kit from New England Nuclear and the ^3 H-LTC4 /D4 /E4 kit from Amersham. The assay was validated using reversed-phase HPLC analysis of LTs in the standard procedure described by M. W. Musch, R. W. Bryant, C. Coscollaela, R. F. Myers and M. I. Siegel, Prostaglandins, Vol. 29, pp 405-430 (1985). Samples of ethanol exudate extract were "spiked" with ^3 H-LTs to follow HPLC purification and recovery.

5-LO = assay: Reversed Passive Arthus Reaction (RPAR) in the pleural cavity: LTE-4 in exudate
Method: as §1, §2

[1] = tested on: Reversed Passive Arthus Reaction (RPAR) in the pleural cavity; assay: Reversed Passive Arthus Reaction (RPAR) in the pleural cavity: cells and fluid; conditions: Rattus norvegicus, 4 h; for inhibition in vivo at 25 mg/kg: dose 25 mpk; for inhibition in vivo at 20 mg/kg: dose 20 mpk
Method: as §1, §2

[2] = read-out: RPAR-Pleural Cavity % Inhibition cells
[3] = read-out: RPAR-Pleural Cavity % Inhibition fluid

In the case of CN1C(=O)C(C)(C)c2cccnc21 [Compound 3, 1,3-dihydro-1,3,3-trimethyl-2H-pyrrolo[2,3-b]pyridin-2-one], the “RPAR-Pleural Cavity % Inhibition TXB-2” value (CO (cyclooxygenase); dose 25 mpk) is reported as 17%, the “RPAR-Pleural Cavity % Inhibition LTE-4” value (5-LO; dose 25 mpk) is reported as 62% and the inhibition in vivo at 25 mg/kg [1, 2] is reported as 69%. The inhibition in vivo at 25 mg/kg [1, 3] was 53%.

With CC1(C)C(=O)N(c2cccc(Cl)c2)c2ncccc21 [Compound 5, 1-(3-chlorophenyl)-1,3-dihydro-3,3-dimethyl-2H-pyrrolo[2,3-b]pyridin-2-one] the “RPAR-Pleural Cavity % Inhibition TXB-2” value (CO (cyclooxygenase); dose 25 mpk) was 62%, the “RPAR-Pleural Cavity % Inhibition LTE-4” value (5-LO; dose 25 mpk) was 59% and the inhibition in vivo at 25 mg/kg [1, 2] was 51%. The inhibition in vivo at 25 mg/kg [1, 3] was 49%.

In the case of CC1(C)C(=O)N(c2ccc(Cl)c(Cl)c2)c2ncccc21 [Compound 6, 1-(3,4-dichlorophenyl)-1,3-dihydro-3,3-dimethyl-2H-pyrrolo[2,3-b]pyridin-2-one], the “RPAR-Pleural Cavity % Inhibition TXB-2” value (CO (cyclooxygenase); dose 25 mpk) is reported as 44%, the “RPAR-Pleural Cavity % Inhibition LTE-4” value (5-LO; dose 25 mpk) is reported as 46% and the inhibition in vivo at 25 mg/kg [1, 2] is reported as 26%. The inhibition in vivo at 25 mg/kg [1, 3] was 25%.

For COc1ccc(N2C(=O)C(C)(C)c3cccnc32)cc1 [Compound 8, 1,3-dihydro-3,3-dimethyl-1-(4-methoxyphenyl)-2H-pyrrolo[2,3-b]pyridin-2-one], the “RPAR-Pleural Cavity % Inhibition TXB-2” value (CO (cyclooxygenase); dose 25 mpk) was 34%, the “RPAR-Pleural Cavity % Inhibition LTE-4” value (5-LO; dose 25 mpk) was 0% and the inhibition in vivo at 25 mg/kg [1, 2] was 63%. The inhibition in vivo at 25 mg/kg [1, 3] was 42%.

With CC1(C)C(=O)N(c2ccc(F)cc2)c2ncccc21 [Compound 9, 1,3-dihydro-3,3-dimethyl-1-(4-fluorophenyl)-2H-pyrrolo[2,3-b]pyridin-2-one] the “RPAR-Pleural Cavity % Inhibition TXB-2” value (CO (cyclooxygenase); dose 20 mpk) was 53%, the “RPAR-Pleural Cavity % Inhibition LTE-4” value (5-LO; dose 20 mpk) was 36% and the inhibition in vivo at 20 mg/kg [1, 2] was 70%. It also gave an inhibition in vivo at 20 mg/kg [1, 3] of 43%.
